Assay: xn = mol fraction of the nth substance listed
Settings: Liquid; for mass density: Buoyancy - hydrostatic balance with magnetic suspension - one sinker; for viscosity: Falling or rolling sphere viscometry

C=CCCCCCC [oct-1-ene] + C=CCCCC
Settings | mass density [kg/m3] | viscosity [mPa·s]
298.15 K, 98 kPa, x1 = 0.2 | 685.08 | 0.317
298.15 K, 98 kPa, x1 = 0.4823 | 696.22 | 0.36
298.15 K, 98 kPa, x1 = 0.6923 | 705.6 | 0.411
298.15 K, 24510 kPa, x1 = 0.2 | 709.99 | 0.395
298.15 K, 24510 kPa, x1 = 0.4823 | 720.99 | 0.444
298.15 K, 24510 kPa, x1 = 0.6923 | 729.5 | 0.511
298.15 K, 49030 kPa, x1 = 0.2 | 727.77 | 0.473
298.15 K, 49030 kPa, x1 = 0.4823 | 736.94 | 0.537
298.15 K, 49030 kPa, x1 = 0.6923 | 745.31 | 0.618
298.15 K, 98060 kPa, x1 = 0.2 | 754.11 | 0.644
298.15 K, 98060 kPa, x1 = 0.4823 | 765.67 | 0.737
298.15 K, 98060 kPa, x1 = 0.6923 | 771.37 | 0.859
298.15 K, 196130 kPa, x1 = 0.2 | 792.06 | 1.053
298.15 K, 196130 kPa, x1 = 0.4823 | 801.39 | 1.225
298.15 K, 196130 kPa, x1 = 0.6923 | 806.92 | 1.47
302.9 K, 98 kPa, x1 = 0.6923 | 703 | 0.396
303.67 K, 98 kPa, x1 = 0.4823 | 692.48 | 0.347
305.25 K, 98 kPa, x1 = 0.2 | 679.54 | 0.304
312.9 K, 98 kPa, x1 = 0.6923 | 696.34 | 0.36
313.35 K, 98 kPa, x1 = 0.4823 | 685.54 | 0.319
313.65 K, 98 kPa, x1 = 0.2 | 672.69 | 0.283
322.39 K, 196130 kPa, x1 = 0.6923 | 796.19 | 1.133
322.63 K, 98060 kPa, x1 = 0.6923 | 759.23 | 0.688
322.7 K, 49030 kPa, x1 = 0.6923 | 730.47 | 0.497
322.74 K, 24510 kPa, x1 = 0.6923 | 712.73 | 0.41
322.86 K, 98 kPa, x1 = 0.6923 | 688.08 | 0.325
322.95 K, 196130 kPa, x1 = 0.2 | 781.57 | 0.842
323.14 K, 98060 kPa, x1 = 0.2 | 743.21 | 0.525
323.23 K, 24510 kPa, x1 = 0.2 | 692.21 | 0.323
323.24 K, 49030 kPa, x1 = 0.2 | 714.09 | 0.388
323.28 K, 98 kPa, x1 = 0.2 | 664.43 | 0.256
323.53 K, 196130 kPa, x1 = 0.4823 | 791.05 | 0.962
323.71 K, 98060 kPa, x1 = 0.4823 | 753.36 | 0.589
323.72 K, 49030 kPa, x1 = 0.4823 | 723.85 | 0.434
323.73 K, 24510 kPa, x1 = 0.4823 | 705.99 | 0.358
323.86 K, 98 kPa, x1 = 0.4823 | 678.22 | 0.285
354.41 K, 196130 kPa, x1 = 0.2 | 767.99 | 0.675
354.53 K, 196130 kPa, x1 = 0.4823 | 778.99 | 0.757
354.58 K, 98060 kPa, x1 = 0.4823 | 737.84 | 0.478
354.59 K, 49030 kPa, x1 = 0.4823 | 705.39 | 0.354
354.61 K, 24510 kPa, x1 = 0.4823 | 683.97 | 0.291
354.84 K, 98060 kPa, x1 = 0.2 | 727.23 | 0.428
355.02 K, 24510 kPa, x1 = 0.2 | 671.58 | 0.259
355.04 K, 49030 kPa, x1 = 0.2 | 694.07 | 0.317
355.16 K, 98060 kPa, x1 = 0.6923 | 741.82 | 0.544
355.27 K, 49030 kPa, x1 = 0.6923 | 713.02 | 0.398
355.35 K, 196130 kPa, x1 = 0.6923 | 782.46 | 0.876
355.44 K, 24510 kPa, x1 = 0.6923 | 691.53 | 0.327
390.42 K, 196130 kPa, x1 = 0.4823 | 763 | 0.614
390.6 K, 196130 kPa, x1 = 0.6923 | 764.29 | 0.684
390.61 K, 98060 kPa, x1 = 0.4823 | 718.3 | 0.392
390.66 K, 24510 kPa, x1 = 0.6923 | 668.32 | 0.258
390.68 K, 98060 kPa, x1 = 0.6923 | 722.16 | 0.433
390.73 K, 24510 kPa, x1 = 0.4823 | 661.95 | 0.233
390.76 K, 49030 kPa, x1 = 0.4823 | 683.17 | 0.286
390.89 K, 49030 kPa, x1 = 0.6923 | 690.6 | 0.319
395.05 K, 196130 kPa, x1 = 0.2 | 750.63 | 0.535
395.31 K, 98060 kPa, x1 = 0.2 | 706.62 | 0.345
395.33 K, 49030 kPa, x1 = 0.2 | 668.64 | 0.253
395.52 K, 24510 kPa, x1 = 0.2 | 641.62 | 0.205
432.98 K, 196130 kPa, x1 = 0.2 | 733.67 | 0.451
433.17 K, 196130 kPa, x1 = 0.6923 | 744.1 | 0.549
433.2 K, 98060 kPa, x1 = 0.6923 | 698.66 | 0.349
433.33 K, 49030 kPa, x1 = 0.6923 | 664.02 | 0.255
433.38 K, 24510 kPa, x1 = 0.6923 | 641.38 | 0.204
433.51 K, 98060 kPa, x1 = 0.2 | 682.68 | 0.289
433.58 K, 49030 kPa, x1 = 0.2 | 642.37 | 0.213
433.62 K, 24510 kPa, x1 = 0.2 | 614.08 | 0.169
435.46 K, 196130 kPa, x1 = 0.4823 | 741.63 | 0.489
435.49 K, 24510 kPa, x1 = 0.4823 | 631.36 | 0.184
435.61 K, 98060 kPa, x1 = 0.4823 | 693.82 | 0.318
435.7 K, 49030 kPa, x1 = 0.4823 | 656.28 | 0.232
467.82 K, 196130 kPa, x1 = 0.4823 | 725.29 | 0.447
467.87 K, 196130 kPa, x1 = 0.2 | 715.63 | 0.403
467.95 K, 49030 kPa, x1 = 0.4823 | 636.15 | 0.207
467.96 K, 24510 kPa, x1 = 0.4823 | 610.74 | 0.162
468.04 K, 98060 kPa, x1 = 0.2 | 661.09 | 0.262
468.06 K, 98060 kPa, x1 = 0.4823 | 675.8 | 0.285
468.07 K, 49030 kPa, x1 = 0.2 | 620.58 | 0.19
468.18 K, 24510 kPa, x1 = 0.2 | 589.18 | 0.148
469.83 K, 98060 kPa, x1 = 0.6923 | 677.9 | 0.311
469.84 K, 196130 kPa, x1 = 0.6923 | 725.11 | 0.482
470.05 K, 49030 kPa, x1 = 0.6923 | 641.64 | 0.224
470.16 K, 24510 kPa, x1 = 0.6923 | 618.99 | 0.176

Reference: the NIST ThermoML archive (doi:10.1016/j.tca.2014.08.016)
